Test results reported in article PMC4486940, “Redox Linked Flavin Sites in Extracellular Decaheme Proteins Involved in Microbe-Mineral Electron Transfer” (Scientific Reports, 2015).

What was measured:
Format in all cases: binding
MtrC [1] = biological target: T1, MtrC (Shewanella oneidensis, UniProt Q8EG34); assay: PD10 gel-filtration co-elution, spectroscopy; details: anaerobic, reduced glutathione (disulfide reduced), 20 mM HEPES pH 7.6, room temperature
T1 construct: soluble; pLS146 in S. oneidensis LS329; model residues 45-670
T1 sequence (Q8EG34 26-671): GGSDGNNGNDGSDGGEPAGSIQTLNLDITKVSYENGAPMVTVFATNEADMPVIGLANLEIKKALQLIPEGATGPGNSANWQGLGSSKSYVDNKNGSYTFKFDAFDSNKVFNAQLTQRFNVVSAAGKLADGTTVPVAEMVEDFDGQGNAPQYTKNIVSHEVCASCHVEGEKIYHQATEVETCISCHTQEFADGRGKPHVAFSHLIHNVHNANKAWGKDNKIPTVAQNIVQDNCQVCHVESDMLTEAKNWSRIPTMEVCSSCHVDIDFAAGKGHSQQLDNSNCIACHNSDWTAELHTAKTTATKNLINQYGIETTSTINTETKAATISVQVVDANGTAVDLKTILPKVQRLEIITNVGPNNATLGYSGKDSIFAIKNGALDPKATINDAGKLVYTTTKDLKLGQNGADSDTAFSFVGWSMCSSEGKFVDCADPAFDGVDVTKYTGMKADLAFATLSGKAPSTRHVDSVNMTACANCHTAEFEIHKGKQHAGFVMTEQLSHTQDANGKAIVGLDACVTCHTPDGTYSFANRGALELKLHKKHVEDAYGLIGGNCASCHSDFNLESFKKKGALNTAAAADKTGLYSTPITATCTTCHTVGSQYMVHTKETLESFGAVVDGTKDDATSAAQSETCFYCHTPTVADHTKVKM

OmcA = biological target: T2, OmcA (Shewanella oneidensis, UniProt Q8EG33); assay: PD10 gel-filtration co-elution, flavin fluorescence and absorbance; details: anaerobic, 1 mM reduced glutathione (disulfide reduced), 10 uM FMN, 20 mM HEPES pH 7.6, room temperature
T2 construct: soluble form, isolated as in earlier work
T2 sequence (Q8EG33 28-735): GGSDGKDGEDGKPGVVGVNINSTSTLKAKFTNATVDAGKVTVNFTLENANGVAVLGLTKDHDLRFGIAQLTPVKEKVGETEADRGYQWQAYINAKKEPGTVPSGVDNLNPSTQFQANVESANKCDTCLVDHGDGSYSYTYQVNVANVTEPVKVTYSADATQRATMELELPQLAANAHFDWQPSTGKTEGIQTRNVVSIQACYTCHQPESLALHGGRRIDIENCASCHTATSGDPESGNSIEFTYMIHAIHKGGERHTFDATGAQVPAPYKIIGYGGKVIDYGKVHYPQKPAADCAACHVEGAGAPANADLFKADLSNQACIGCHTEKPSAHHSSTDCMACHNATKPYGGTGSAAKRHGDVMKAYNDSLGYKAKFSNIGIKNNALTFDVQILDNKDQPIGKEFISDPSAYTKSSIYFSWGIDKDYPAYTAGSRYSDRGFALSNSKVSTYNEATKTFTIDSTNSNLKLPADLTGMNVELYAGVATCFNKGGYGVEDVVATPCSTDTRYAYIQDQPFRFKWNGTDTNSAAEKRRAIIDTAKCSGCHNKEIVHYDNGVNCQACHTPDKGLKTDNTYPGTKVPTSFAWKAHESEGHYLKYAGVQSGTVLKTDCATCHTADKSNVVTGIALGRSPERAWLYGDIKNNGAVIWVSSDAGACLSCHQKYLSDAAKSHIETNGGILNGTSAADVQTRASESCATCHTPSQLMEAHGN

MtrF = biological target: T3, MtrF (Shewanella oneidensis, UniProt Q8EG32); assay: PD10 gel-filtration co-elution, flavin fluorescence ([…] nm); details: anaerobic, 1 mM reduced glutathione (disulfide reduced), 10 uM FMN, 20 mM HEPES pH 7.6, room temperature
T3 construct: detergent-solubilised form, isolated as in earlier work
T3 sequence (Q8EG32 24-639): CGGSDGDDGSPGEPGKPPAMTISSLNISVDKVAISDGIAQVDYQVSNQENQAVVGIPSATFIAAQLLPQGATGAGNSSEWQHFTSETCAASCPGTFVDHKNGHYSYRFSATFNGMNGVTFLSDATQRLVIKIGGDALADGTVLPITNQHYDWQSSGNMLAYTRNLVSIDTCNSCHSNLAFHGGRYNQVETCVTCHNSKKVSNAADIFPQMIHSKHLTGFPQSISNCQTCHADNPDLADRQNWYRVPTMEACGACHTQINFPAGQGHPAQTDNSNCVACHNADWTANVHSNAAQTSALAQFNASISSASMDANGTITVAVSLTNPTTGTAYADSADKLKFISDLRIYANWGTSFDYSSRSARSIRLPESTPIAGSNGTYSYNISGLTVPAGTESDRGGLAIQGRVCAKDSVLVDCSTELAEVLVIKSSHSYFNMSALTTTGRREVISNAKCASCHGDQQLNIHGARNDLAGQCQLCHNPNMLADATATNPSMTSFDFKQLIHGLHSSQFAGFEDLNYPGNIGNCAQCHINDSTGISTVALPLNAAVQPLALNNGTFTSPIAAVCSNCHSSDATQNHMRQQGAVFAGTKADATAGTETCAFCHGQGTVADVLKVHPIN

MtrC [2] = biological target: T1, MtrC; assay: PD10 gel-filtration co-elution, flavin fluorescence and absorbance; fluorescence quenching; details: anaerobic, 1 mM reduced glutathione (disulfide reduced), 1 uM MtrC, 10 uM FMN, 20 mM HEPES pH 7.6, room temperature
UndA = biological target: T4, UndA (Shewanella sp. HRCR_06, UniProt F8UWD6); assay: PD10 gel-filtration co-elution, flavin fluorescence ([…] nm); details: anaerobic, 1 mM reduced glutathione (disulfide reduced), 10 uM FMN, 20 mM HEPES pH 7.6, room temperature
T4 construct: soluble form, isolated as in earlier work
T4 sequence (F8UWD6 27-843): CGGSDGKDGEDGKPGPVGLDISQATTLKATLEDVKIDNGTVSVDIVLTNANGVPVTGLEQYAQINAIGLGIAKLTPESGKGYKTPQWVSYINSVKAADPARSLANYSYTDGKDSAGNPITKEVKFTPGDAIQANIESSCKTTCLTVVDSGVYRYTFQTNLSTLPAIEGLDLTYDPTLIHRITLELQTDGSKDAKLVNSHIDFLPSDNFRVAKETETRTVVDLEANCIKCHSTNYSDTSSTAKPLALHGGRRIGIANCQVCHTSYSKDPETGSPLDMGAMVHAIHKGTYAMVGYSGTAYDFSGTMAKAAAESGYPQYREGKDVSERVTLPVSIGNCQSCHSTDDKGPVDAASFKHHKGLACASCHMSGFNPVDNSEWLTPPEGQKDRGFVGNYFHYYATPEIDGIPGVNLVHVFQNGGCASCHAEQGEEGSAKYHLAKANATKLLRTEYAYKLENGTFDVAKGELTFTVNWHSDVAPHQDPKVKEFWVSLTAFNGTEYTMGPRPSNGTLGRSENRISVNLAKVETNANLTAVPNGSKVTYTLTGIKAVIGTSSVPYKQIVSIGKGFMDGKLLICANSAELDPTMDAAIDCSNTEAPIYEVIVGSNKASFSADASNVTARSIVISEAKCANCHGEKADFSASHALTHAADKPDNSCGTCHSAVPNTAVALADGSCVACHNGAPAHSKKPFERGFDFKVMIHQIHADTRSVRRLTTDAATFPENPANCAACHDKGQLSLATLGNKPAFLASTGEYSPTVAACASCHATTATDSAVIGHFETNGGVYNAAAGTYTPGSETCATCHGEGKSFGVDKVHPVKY

Structure (SMILES): Cc1cc2nc3c(=O)[nH]c(=O)nc-3n(C[C@H](O)[C@H](O)[C@H](O)CO)c2cc1C [riboflavin]
- PD10 gel-filtration co-elution, spectroscopy (MtrC [1]): MtrC was also capable of tightly binding a single molecule of riboflavin

Structure (SMILES): Cc1cc2nc3c(=O)[nH]c(=O)nc-3n(C[C@H](O)[C@H](O)[C@H](O)COP(=O)(O)O)c2cc1C [FMN]
- PD10 gel-filtration co-elution, flavin fluorescence and absorbance (OmcA): Co-elution of FMN and OmcA was observed in the presence, but not the absence, of glutathione
- PD10 gel-filtration co-elution, flavin fluorescence (525 nm) (MtrF): OMMC-FMN interactions were also observed after incubation of MtrF or UndA with FMN
- PD10 gel-filtration co-elution, flavin fluorescence and absorbance; fluorescence (MtrC [2]): FMN associated specifically with MtrC in the presence of glutathione
- PD10 gel-filtration co-elution, flavin fluorescence (525 nm) (UndA): OMMC-FMN interactions were also observed after incubation of MtrF or UndA with FMN
